Test results taken from article PMC7490411 (Signal Transduction and Targeted Therapy, 2020).

Experiments:
Mino cells = experiment: NK-cell-mediated ADCC, LDH release cytotoxicity assay, Rituximab; type: cell-based, human
Protocol: The cytotoxicity of NK cells was measured using the CyQUANT™ LDH Cytotoxicity Assay Kit (Invitrogen™, #C20300) according to the manufacturer’s instructions. Briefly, enriched NK cells (6 × 10^5 /ml) were cultured with the same volume of Mino cell and SK-OV-3 cell (1-2 × 10^4 /ml) in a 96-well plate for 4 h with Rituximab and Herceptin (10 μg/mL) and CHMFL-BTK-85 or PCI32765 at 37°C in a humidified CO2 incubator prior to removal of the supernatant for lactate dehydrogenase (LDH) release measurements. Calculate % Cytotoxicity by using the following formula: %Cytotoxicity = (Compound-treated LDH activity-Spontaneous LDH activity)/(Maximum LDH activity-Spontaneous LDH activity)*100.

[1] = system: ABL1(Q252H)-phosphorylated; experiment: KINOMEscan; type: binding; details: 1000 nM
ABL1-nonphosphorylated = experiment: KINOMEscan; type: binding; details: 1000 nM
ABL1-phosphorylated = experiment: KINOMEscan; type: binding; details: 1000 nM
ACVR2B = experiment: KINOMEscan; type: binding; details: 1000 nM
AKT1 = experiment: KINOMEscan; type: binding; details: 1000 nM
ALK(L1196M) = experiment: KINOMEscan; type: binding; details: 1000 nM
ASK1 = experiment: KINOMEscan; type: binding; details: 1000 nM
BRAF(V600E) = experiment: KINOMEscan; type: binding; details: 1000 nM
CDKL1 = experiment: KINOMEscan; type: binding; details: 1000 nM
CIT = experiment: KINOMEscan; type: binding; details: 1000 nM
CSF1R = experiment: KINOMEscan; type: binding; details: 1000 nM
CSNK2A1 = experiment: KINOMEscan; type: binding; details: 1000 nM
DAPK2 = experiment: KINOMEscan; type: binding; details: 1000 nM
DYRK2 = experiment: KINOMEscan; type: binding; details: 1000 nM
EPHA3 = experiment: KINOMEscan; type: binding; details: 1000 nM
EPHA8 = experiment: KINOMEscan; type: binding; details: 1000 nM
FGFR1 = experiment: KINOMEscan; type: binding; details: 1000 nM
GRK7 = experiment: KINOMEscan; type: binding; details: 1000 nM
HASPIN = experiment: KINOMEscan; type: binding; details: 1000 nM
HIPK2 = experiment: KINOMEscan; type: binding; details: 1000 nM
INSR = experiment: KINOMEscan; type: binding; details: 1000 nM
IRAK1 = experiment: KINOMEscan; type: binding; details: 1000 nM
KIT = experiment: KINOMEscan; type: binding; details: 1000 nM
KIT(V559D,V654A) = experiment: KINOMEscan; type: binding; details: 1000 nM
LIMK1 = experiment: KINOMEscan; type: binding; details: 1000 nM
MAK = experiment: KINOMEscan; type: binding; details: 1000 nM
MAP3K1 = experiment: KINOMEscan; type: binding; details: 1000 nM
MAP4K4 = experiment: KINOMEscan; type: binding; details: 1000 nM
MAP4K5 = experiment: KINOMEscan; type: binding; details: 1000 nM
MARK1 = experiment: KINOMEscan; type: binding; details: 1000 nM
MARK3 = experiment: KINOMEscan; type: binding; details: 1000 nM
MKNK1 = experiment: KINOMEscan; type: binding; details: 1000 nM
MKNK2 = experiment: KINOMEscan; type: binding; details: 1000 nM
MRCKB = experiment: KINOMEscan; type: binding; details: 1000 nM
NEK9 = experiment: KINOMEscan; type: binding; details: 1000 nM
PIK3C2B = experiment: KINOMEscan; type: binding; details: 1000 nM
PIK3C2G = experiment: KINOMEscan; type: binding; details: 1000 nM
PIK3CA(E542K) = experiment: KINOMEscan; type: binding; details: 1000 nM
PIK3CA(E545A) = experiment: KINOMEscan; type: binding; details: 1000 nM
PIM3 = experiment: KINOMEscan; type: binding; details: 1000 nM
PRKCQ = experiment: KINOMEscan; type: binding; details: 1000 nM
PRKD2 = experiment: KINOMEscan; type: binding; details: 1000 nM
PRP4 = experiment: KINOMEscan; type: binding; details: 1000 nM
RIPK2 = experiment: KINOMEscan; type: binding; details: 1000 nM
ROCK1 = experiment: KINOMEscan; type: binding; details: 1000 nM
[2] = system: RPS6KA5(Kin.Dom.1-N-terminal); experiment: KINOMEscan; type: binding; details: 1000 nM
[3] = system: RSK1(Kin.Dom.2-C-terminal); experiment: KINOMEscan; type: binding; details: 1000 nM
SGK2 = experiment: KINOMEscan; type: binding; details: 1000 nM
SGK3 = experiment: KINOMEscan; type: binding; details: 1000 nM
STK33 = experiment: KINOMEscan; type: binding; details: 1000 nM
VPS34 = experiment: KINOMEscan; type: binding; details: 1000 nM
YSK4 = experiment: KINOMEscan; type: binding; details: 1000 nM
ZAK = experiment: KINOMEscan; type: binding; details: 1000 nM

## C=CC(=O)Nc1cc(Nc2cc(-c3cccc(NC(=O)c4cc5c(s4)CCCC5)c3C)cn(C)c2=O)ccc1N1CCN(CC)CC1 [CHMFL-BTK-85]
Mino cells
  effect on antibody-dependent NK-cell-mediated cytotoxicity (ADCC): did not affect
[1]
  Percent Control: 96%
ABL1-nonphosphorylated
  Percent Control: 76%
ABL1-phosphorylated
  Percent Control: 72%
ACVR2B
  Percent Control: 99%
AKT1
  Percent Control: 80%
ALK(L1196M)
  Percent Control: 100%
ASK1
  Percent Control: 86%
BRAF(V600E)
  Percent Control: 100%
CDKL1
  Percent Control: 77%
CIT
  Percent Control: 95%
CSF1R
  Percent Control: 90%
CSNK2A1
  Percent Control: 94%
DAPK2
  Percent Control: 100%
DYRK2
  Percent Control: 98%
EPHA3
  Percent Control: 98%
EPHA8
  Percent Control: 91%
FGFR1
  Percent Control: 86%
GRK7
  Percent Control: 100%
HASPIN
  Percent Control: 100%
HIPK2
  Percent Control: 100%
INSR
  Percent Control: 96%
IRAK1
  Percent Control: 100%
KIT
  Percent Control: 92%
KIT(V559D,V654A)
  Percent Control: 100%
LIMK1
  Percent Control: 98%
MAK
  Percent Control: 89%
MAP3K1
  Percent Control: 99%
MAP4K4
  Percent Control: 90%
MAP4K5
  Percent Control: 100%
MARK1
  Percent Control: 100%
MARK3
  Percent Control: 100%
MKNK1
  Percent Control: 100%
MKNK2
  Percent Control: 100%
MRCKB
  Percent Control: 75%
NEK9
  Percent Control: 100%
PIK3C2B
  Percent Control: 92%
PIK3C2G
  Percent Control: 63%
PIK3CA(E542K)
  Percent Control: 99%
PIK3CA(E545A)
  Percent Control: 65%
PIM3
  Percent Control: 80%
PRKCQ
  Percent Control: 80%
PRKD2
  Percent Control: 100%
PRP4
  Percent Control: 92%
RIPK2
  Percent Control: 94%
ROCK1
  Percent Control: 100%
[2]
  Percent Control: 90%
[3]
  Percent Control: 100%
SGK2
  Percent Control: 100%
SGK3
  Percent Control: 100%
STK33
  Percent Control: 90%
VPS34
  Percent Control: 100%
YSK4
  Percent Control: 100%
ZAK
  Percent Control: 99%
